Results from patent publication US4229204A, “Trifluoromethylphenyl isoxazolyl benzoates” (Monsanto Company, priority 1978, dated 1980).

Tests used:
Format in all cases: in vivo
Barnyardgrass [1] = test: Pre-emergent herbicidal test
Description: (§1) The pre-emergent test was conducted as follows:
(§2) A good grade of top soil was placed in aluminum pans and compacted to a depth of three-eighths to one-half inch from the top of the pan. On the top of the soil was placed a predetermined number of seeds or vegetative propagules of various plant species which were pressed into the soil surface. The soil required to level fill the pans after seeding or adding vegetative propagules was weighed into a pan. A known amount of the active ingredient applied in a solvent or as a wettable powder and the soil were thoroughly mixed, and used as a cover layer for prepared pans.
(§3) The herbicidal rating was obtained by means of a fixed scale based on the percent injury of each plant species. The ratings are defined as follows: […]
(§4) The compounds were also tested by utilizing the above procedure on the following plant species: […]

Canada Thistle [2] = test: Pre-emergent herbicidal test; details: 11.2 kg/h
Description: as §1, §2, §3, §4

Cocklebur [3] = test: Pre-emergent herbicidal test
Description: as §1, §2, §3, §4

Downy Brome [4] = test: Pre-emergent herbicidal test
Description: as §1, §2, §3, §4

Johnsongrass [5] = test: Pre-emergent herbicidal test; details: 11.2 kg/h
Description: as §1, §2, §3, §4

Lambsquarters [6] = test: Pre-emergent herbicidal test
Description: as §1, §2, §3, §4

Morningglory [7] = test: Pre-emergent herbicidal test
Description: as §1, §2, §3, §4

Quackgrass [8] = test: Pre-emergent herbicidal test; details: 11.2 kg/h
Description: as §1, §2, §3, §4

Smartweed [9] = test: Pre-emergent herbicidal test
Description: as §1, §2, §3, §4

Velvetleaf [10] = test: Pre-emergent herbicidal test
Description: as §1, §2, §3, §4

Yellow Nutsedge [11] = test: Pre-emergent herbicidal test; details: 11.2 kg/h
Description: as §1, §2, §3, §4

Barnyardgrass [12] = test: Post-emergent herbicidal test; details: 4 WAT, 11.2 kg/h
Description: (§5) The post-emergent tests were conducted as follows:
(§6) The active ingredients are applied in spray form to two or three week old specimens of various plant species. The spray, a solution or wettable powder suspension containing the appropriate rate of active ingredient to give the desired test rate and a surfactant, is applied to the plants.
as §4

Canada Thistle [13] = test: Post-emergent herbicidal test; details: 4 WAT, 11.2 kg/h
Description: as §5, §6, §4

Cocklebur [14] = test: Post-emergent herbicidal test; details: 4 WAT, 11.2 kg/h
Description: as §5, §6, §4

Downy Brome [15] = test: Post-emergent herbicidal test; details: 4 WAT, 11.2 kg/h
Description: as §5, §6, §4

Johnsongrass [16] = test: Post-emergent herbicidal test; details: 4 WAT, 11.2 kg/h
Description: as §5, §6, §4

Lambsquarters [17] = test: Post-emergent herbicidal test; details: 4 WAT, 11.2 kg/h
Description: as §5, §6, §4

Morningglory [18] = test: Post-emergent herbicidal test; details: 4 WAT, 11.2 kg/h
Description: as §5, §6, §4

Quackgrass [19] = test: Post-emergent herbicidal test; details: 4 WAT, 11.2 kg/h
Description: as §5, §6, §4

Smartweed [20] = test: Post-emergent herbicidal test; details: 4 WAT, 11.2 kg/h
Description: as §5, §6, §4

Velvetleaf [21] = test: Post-emergent herbicidal test; details: 4 WAT, 11.2 kg/h
Description: as §5, §6, §4

Yellow Nutsedge [22] = test: Post-emergent herbicidal test; details: 4 WAT, 11.2 kg/h
Description: as §5, §6, §4

Crabgrass = test: Pre-emergent herbicidal test
Description: as §1, §2, §3

Hemp Sesbania = test: Pre-emergent herbicidal test
Description: as §1, §2, §3

Panicum Spp. = test: Pre-emergent herbicidal test
Description: as §1, §2, §3

Rice = test: Pre-emergent herbicidal test
Description: as §1, §2, §3

Sorghum = test: Pre-emergent herbicidal test
Description: as §1, §2, §3

Soybean = test: Pre-emergent herbicidal test
Description: as §1, §2, §3

Sugarbeet = test: Pre-emergent herbicidal test
Description: as §1, §2, §3

Wheat = test: Pre-emergent herbicidal test
Description: as §1, §2, §3

Wild Buckwheat = test: Pre-emergent herbicidal test
Description: as §1, §2, §3

Measured: herbicidal rating
Also: ranges in brackets are in %.

CC(C)OC(=O)c1ccccc1-c1cc(-c2cccc(C(F)(F)F)c2)no1 [Example 8, Isopropyl 2-[3-[3-(Trifluoromethyl)Phenyl]-5-Isoxazolyl]Benzoate]
2 (50-74): Lambsquarters [17] | Morningglory [18]
3 (75-100): Lambsquarters [6]; 2 WAT, 11.2 kg/h
1 (25-49): Quackgrass [8]; 2 WAT | Barnyardgrass [12] | Cocklebur [14] | Smartweed [20]
0 (0-24): Barnyardgrass [1]; 2 WAT, 11.2 kg/h | Canada Thistle [2]; 2 WAT | Cocklebur [3]; 2 WAT, 11.2 kg/h | Downy Brome [4]; 2 WAT, 11.2 kg/h | Johnsongrass [5]; 2 WAT | Morningglory [7]; 2 WAT, 11.2 kg/h | Smartweed [9]; 2 WAT, 11.2 kg/h | Velvetleaf [10]; 2 WAT, 11.2 kg/h | Yellow Nutsedge [11]; 2 WAT | Canada Thistle [13] | Downy Brome [15] | Johnsongrass [16] | Quackgrass [19] | Velvetleaf [21] | Yellow Nutsedge [22]

CCCCCOC(=O)c1ccccc1-c1cc(-c2cccc(C(F)(F)F)c2)no1 [Example 7, n-Pentyl 2-[3-[3-(Trifluoromethyl)Phenyl]-5-Isoxazolyl]Benzoate]
0 (0-24): Crabgrass; 4 WAT, 0.28 kg/h | Crabgrass; 4 WAT, 1.12 kg/h | Hemp Sesbania; 4 WAT, 0.28 kg/h | Panicum Spp.; 4 WAT, 1.12 kg/h | Sorghum; 4 WAT, 0.28 kg/h | Soybean; 4 WAT, 0.28 kg/h | Soybean; 4 WAT, 1.12 kg/h | Wheat; 4 WAT, 0.28 kg/h | Cocklebur [3]; 4 WAT, 0.28 kg/h | Cocklebur [3]; 4 WAT, 1.12 kg/h | Morningglory [7]; 4 WAT, 0.28 kg/h | Smartweed [9]; 4 WAT, 0.28 kg/h | Velvetleaf [10]; 4 WAT, 0.28 kg/h | Velvetleaf [10]; 4 WAT, 1.12 kg/h | Velvetleaf [10]; 4 WAT, 11.2 kg/h | Yellow Nutsedge [11]; 4 WAT | Downy Brome [15] | Quackgrass [19]
3 (75-100): Crabgrass; 4 WAT, 5.60 kg/h | Rice; 4 WAT, 5.60 kg/h | Sorghum; 4 WAT, 5.60 kg/h | Soybean; 4 WAT, 5.60 kg/h | Sugarbeet; 4 WAT, 0.28 kg/h | Wild Buckwheat; 4 WAT, 0.28 kg/h | Barnyardgrass [1]; 4 WAT, 5.60 kg/h | Barnyardgrass [1]; 4 WAT, 11.2 kg/h | Lambsquarters [6]; 4 WAT, 11.2 kg/h
1 (25-49): Hemp Sesbania; 4 WAT, 1.12 kg/h | Rice; 4 WAT, 0.28 kg/h | Sorghum; 4 WAT, 1.12 kg/h | Wheat; 4 WAT, 1.12 kg/h | Wheat; 4 WAT, 5.60 kg/h | Canada Thistle [2]; 4 WAT | Cocklebur [3]; 4 WAT, 5.60 kg/h | Cocklebur [3]; 4 WAT, 11.2 kg/h | Downy Brome [4]; 4 WAT, 1.12 kg/h | Downy Brome [4]; 4 WAT, 11.2 kg/h | Johnsongrass [5]; 4 WAT | Lambsquarters [6]; 4 WAT, 0.28 kg/h | Morningglory [7]; 4 WAT, 11.2 kg/h | Velvetleaf [10]; 4 WAT, 5.60 kg/h | Barnyardgrass [12] | Lambsquarters [17] | Smartweed [20] | Velvetleaf [21] | Yellow Nutsedge [22]
2 (50-74): Hemp Sesbania; 4 WAT, 5.60 kg/h | Panicum Spp.; 4 WAT, 5.60 kg/h | Rice; 4 WAT, 1.12 kg/h | Sugarbeet; 4 WAT, 1.12 kg/h | Sugarbeet; 4 WAT, 5.60 kg/h | Wild Buckwheat; 4 WAT, 1.12 kg/h | Wild Buckwheat; 4 WAT, 5.60 kg/h | Barnyardgrass [1]; 4 WAT, 0.28 kg/h | Barnyardgrass [1]; 4 WAT, 1.12 kg/h | Downy Brome [4]; 4 WAT, 0.28 kg/h | Downy Brome [4]; 4 WAT, 5.60 kg/h | Lambsquarters [6]; 4 WAT, 1.12 kg/h | Lambsquarters [6]; 4 WAT, 5.60 kg/h | Morningglory [7]; 4 WAT, 1.12 kg/h | Morningglory [7]; 4 WAT, 5.60 kg/h | Quackgrass [8]; 4 WAT | Smartweed [9]; 4 WAT, 1.12 kg/h | Smartweed [9]; 4 WAT, 5.60 kg/h | Smartweed [9]; 4 WAT, 11.2 kg/h | Canada Thistle [13] | Cocklebur [14] | Johnsongrass [16] | Morningglory [18]

CCCCOC(=O)c1ccccc1-c1cc(-c2cccc(C(F)(F)F)c2)no1 [Example 6, n-Butyl 2-[3-[3-(Trifluoromethyl)Phenyl]-5-Isoxazolyl]Benzoate]
1 (25-49): Hemp Sesbania; 2 WAT, 0.28 kg/h | Panicum Spp.; 2 WAT, 1.12 kg/h | Sorghum; 2 WAT, 1.12 kg/h | Soybean; 2 WAT, 1.12 kg/h | Sugarbeet; 2 WAT, 0.28 kg/h | Wheat; 2 WAT, 1.12 kg/h | Wheat; 2 WAT, 5.60 kg/h | Cocklebur [3]; 2 WAT, 5.60 kg/h | Cocklebur [3]; 4 WAT, 11.2 kg/h | Downy Brome [4]; 2 WAT, 1.12 kg/h | Morningglory [7]; 2 WAT, 0.28 kg/h | Morningglory [7]; 2 WAT, 1.12 kg/h | Velvetleaf [10]; 4 WAT, 11.2 kg/h | Yellow Nutsedge [11]; 4 WAT | Cocklebur [14] | Johnsongrass [16] | Lambsquarters [17] | Quackgrass [19] | Velvetleaf [21]
3 (75-100): Crabgrass; 2 WAT, 0.28 kg/h | Crabgrass; 2 WAT, 5.60 kg/h | Hemp Sesbania; 2 WAT, 1.12 kg/h | Panicum Spp.; 2 WAT, 0.28 kg/h | Rice; 2 WAT, 1.12 kg/h | Rice; 2 WAT, 5.60 kg/h | Sorghum; 2 WAT, 5.60 kg/h | Soybean; 2 WAT, 5.60 kg/h | Wild Buckwheat; 2 WAT, 0.28 kg/h | Wild Buckwheat; 2 WAT, 5.60 kg/h | Barnyardgrass [1]; 2 WAT, 0.28 kg/h | Barnyardgrass [1]; 2 WAT, 1.12 kg/h | Barnyardgrass [1]; 2 WAT, 5.60 kg/h | Barnyardgrass [1]; 4 WAT, 11.2 kg/h | Canada Thistle [2]; 4 WAT | Downy Brome [4]; 2 WAT, 5.60 kg/h | Downy Brome [4]; 4 WAT, 11.2 kg/h | Lambsquarters [6]; 2 WAT, 0.28 kg/h | Lambsquarters [6]; 2 WAT, 1.12 kg/h | Lambsquarters [6]; 2 WAT, 5.60 kg/h | Morningglory [7]; 2 WAT, 5.60 kg/h | Morningglory [7]; 4 WAT, 11.2 kg/h | Smartweed [9]; 2 WAT, 0.28 kg/h | Smartweed [9]; 2 WAT, 1.12 kg/h | Smartweed [9]; 2 WAT, 5.60 kg/h | Smartweed [9]; 4 WAT, 11.2 kg/h
2 (50-74): Crabgrass; 2 WAT, 1.12 kg/h | Hemp Sesbania; 2 WAT, 5.60 kg/h | Panicum Spp.; 2 WAT, 5.60 kg/h | Rice; 2 WAT, 0.28 kg/h | Sugarbeet; 2 WAT, 1.12 kg/h | Sugarbeet; 2 WAT, 5.60 kg/h | Wild Buckwheat; 2 WAT, 1.12 kg/h | Downy Brome [4]; 2 WAT, 0.28 kg/h | Lambsquarters [6]; 4 WAT, 11.2 kg/h | Quackgrass [8]; 4 WAT | Velvetleaf [10]; 2 WAT, 5.60 kg/h | Barnyardgrass [12] | Canada Thistle [13] | Morningglory [18] | Smartweed [20]
0 (0-24): Sorghum; 2 WAT, 0.28 kg/h | Soybean; 2 WAT, 0.28 kg/h | Wheat; 2 WAT, 0.28 kg/h | Cocklebur [3]; 2 WAT, 0.28 kg/h | Cocklebur [3]; 2 WAT, 1.12 kg/h | Johnsongrass [5]; 4 WAT | Velvetleaf [10]; 2 WAT, 0.28 kg/h | Velvetleaf [10]; 2 WAT, 1.12 kg/h | Downy Brome [15] | Yellow Nutsedge [22]
